Structures are written as SMILES. Where two headings read alike, the source gives them in different places. Positions of bridges follow the written chain, without caps; N, C: chain ends. Residues, ends and D or L forms follow the SMILES beside them.

The target of one assay is hNav1.7 (Homo sapiens, UniProt Q15858). Description: cell-based. It counts as cell-based.
A further assay deals with hNav1.3 (Homo sapiens, UniProt Q9NY46). Description: cell-based. The note with it: for IC50: IonWorks Quattro, read-out: IWQ Use Nav1.3. (In general: The patch-clamp technique gives a direct electrical read-out from membranes.)
Sequence of hNav1.3 (Q9NY46 whole entry, looked up): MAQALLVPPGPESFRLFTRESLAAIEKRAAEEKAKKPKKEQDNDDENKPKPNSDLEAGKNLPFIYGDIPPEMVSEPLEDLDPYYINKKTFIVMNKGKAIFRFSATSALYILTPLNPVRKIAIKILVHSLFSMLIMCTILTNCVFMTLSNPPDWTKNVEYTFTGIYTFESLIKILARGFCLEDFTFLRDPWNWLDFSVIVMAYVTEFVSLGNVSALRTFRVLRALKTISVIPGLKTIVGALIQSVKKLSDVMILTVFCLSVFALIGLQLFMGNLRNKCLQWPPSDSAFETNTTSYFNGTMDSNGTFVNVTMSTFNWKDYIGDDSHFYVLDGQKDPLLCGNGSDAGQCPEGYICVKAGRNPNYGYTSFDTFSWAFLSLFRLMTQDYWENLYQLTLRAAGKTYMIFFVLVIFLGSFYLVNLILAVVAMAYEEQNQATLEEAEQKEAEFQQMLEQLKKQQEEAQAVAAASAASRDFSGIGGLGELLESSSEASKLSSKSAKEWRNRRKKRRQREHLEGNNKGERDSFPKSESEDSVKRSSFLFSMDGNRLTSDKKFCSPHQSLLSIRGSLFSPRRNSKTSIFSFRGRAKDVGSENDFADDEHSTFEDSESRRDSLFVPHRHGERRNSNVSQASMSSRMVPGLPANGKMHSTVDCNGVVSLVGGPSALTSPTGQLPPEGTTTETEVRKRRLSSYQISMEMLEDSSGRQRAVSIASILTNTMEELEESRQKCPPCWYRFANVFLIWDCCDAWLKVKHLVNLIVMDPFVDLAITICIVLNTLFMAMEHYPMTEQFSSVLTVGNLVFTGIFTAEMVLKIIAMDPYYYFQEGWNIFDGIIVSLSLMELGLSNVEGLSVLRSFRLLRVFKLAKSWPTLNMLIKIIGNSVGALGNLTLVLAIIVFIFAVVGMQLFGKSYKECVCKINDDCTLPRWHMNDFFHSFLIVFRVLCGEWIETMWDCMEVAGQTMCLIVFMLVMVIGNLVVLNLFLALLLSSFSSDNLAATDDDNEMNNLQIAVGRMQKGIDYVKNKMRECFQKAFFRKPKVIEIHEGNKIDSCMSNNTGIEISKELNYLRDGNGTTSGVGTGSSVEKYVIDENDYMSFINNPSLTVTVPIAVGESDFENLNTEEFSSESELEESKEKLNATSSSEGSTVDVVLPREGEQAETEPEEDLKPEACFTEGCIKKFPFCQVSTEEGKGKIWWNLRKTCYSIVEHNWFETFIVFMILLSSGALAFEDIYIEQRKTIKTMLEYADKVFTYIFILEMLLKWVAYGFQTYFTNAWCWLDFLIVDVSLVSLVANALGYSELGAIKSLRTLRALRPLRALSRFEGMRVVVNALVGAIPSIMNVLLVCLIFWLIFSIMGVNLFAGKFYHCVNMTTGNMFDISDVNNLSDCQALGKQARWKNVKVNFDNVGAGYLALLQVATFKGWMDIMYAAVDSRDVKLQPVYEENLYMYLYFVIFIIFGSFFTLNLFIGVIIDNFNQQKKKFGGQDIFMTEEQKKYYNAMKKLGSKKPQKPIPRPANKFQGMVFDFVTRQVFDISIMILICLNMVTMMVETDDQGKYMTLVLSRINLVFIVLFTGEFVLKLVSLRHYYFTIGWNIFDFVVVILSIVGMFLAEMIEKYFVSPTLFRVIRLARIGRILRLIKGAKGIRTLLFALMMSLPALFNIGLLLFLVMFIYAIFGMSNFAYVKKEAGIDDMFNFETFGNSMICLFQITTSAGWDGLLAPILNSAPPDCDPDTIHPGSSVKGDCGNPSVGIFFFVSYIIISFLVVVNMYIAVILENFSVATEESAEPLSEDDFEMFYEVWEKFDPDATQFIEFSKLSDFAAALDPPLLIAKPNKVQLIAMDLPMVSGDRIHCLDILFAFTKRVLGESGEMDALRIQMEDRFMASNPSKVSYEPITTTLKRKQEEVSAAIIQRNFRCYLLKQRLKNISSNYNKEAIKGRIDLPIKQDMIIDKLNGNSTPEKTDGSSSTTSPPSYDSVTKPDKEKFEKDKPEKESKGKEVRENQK

Sequence of hNav1.7 (Q15858 whole entry, looked up): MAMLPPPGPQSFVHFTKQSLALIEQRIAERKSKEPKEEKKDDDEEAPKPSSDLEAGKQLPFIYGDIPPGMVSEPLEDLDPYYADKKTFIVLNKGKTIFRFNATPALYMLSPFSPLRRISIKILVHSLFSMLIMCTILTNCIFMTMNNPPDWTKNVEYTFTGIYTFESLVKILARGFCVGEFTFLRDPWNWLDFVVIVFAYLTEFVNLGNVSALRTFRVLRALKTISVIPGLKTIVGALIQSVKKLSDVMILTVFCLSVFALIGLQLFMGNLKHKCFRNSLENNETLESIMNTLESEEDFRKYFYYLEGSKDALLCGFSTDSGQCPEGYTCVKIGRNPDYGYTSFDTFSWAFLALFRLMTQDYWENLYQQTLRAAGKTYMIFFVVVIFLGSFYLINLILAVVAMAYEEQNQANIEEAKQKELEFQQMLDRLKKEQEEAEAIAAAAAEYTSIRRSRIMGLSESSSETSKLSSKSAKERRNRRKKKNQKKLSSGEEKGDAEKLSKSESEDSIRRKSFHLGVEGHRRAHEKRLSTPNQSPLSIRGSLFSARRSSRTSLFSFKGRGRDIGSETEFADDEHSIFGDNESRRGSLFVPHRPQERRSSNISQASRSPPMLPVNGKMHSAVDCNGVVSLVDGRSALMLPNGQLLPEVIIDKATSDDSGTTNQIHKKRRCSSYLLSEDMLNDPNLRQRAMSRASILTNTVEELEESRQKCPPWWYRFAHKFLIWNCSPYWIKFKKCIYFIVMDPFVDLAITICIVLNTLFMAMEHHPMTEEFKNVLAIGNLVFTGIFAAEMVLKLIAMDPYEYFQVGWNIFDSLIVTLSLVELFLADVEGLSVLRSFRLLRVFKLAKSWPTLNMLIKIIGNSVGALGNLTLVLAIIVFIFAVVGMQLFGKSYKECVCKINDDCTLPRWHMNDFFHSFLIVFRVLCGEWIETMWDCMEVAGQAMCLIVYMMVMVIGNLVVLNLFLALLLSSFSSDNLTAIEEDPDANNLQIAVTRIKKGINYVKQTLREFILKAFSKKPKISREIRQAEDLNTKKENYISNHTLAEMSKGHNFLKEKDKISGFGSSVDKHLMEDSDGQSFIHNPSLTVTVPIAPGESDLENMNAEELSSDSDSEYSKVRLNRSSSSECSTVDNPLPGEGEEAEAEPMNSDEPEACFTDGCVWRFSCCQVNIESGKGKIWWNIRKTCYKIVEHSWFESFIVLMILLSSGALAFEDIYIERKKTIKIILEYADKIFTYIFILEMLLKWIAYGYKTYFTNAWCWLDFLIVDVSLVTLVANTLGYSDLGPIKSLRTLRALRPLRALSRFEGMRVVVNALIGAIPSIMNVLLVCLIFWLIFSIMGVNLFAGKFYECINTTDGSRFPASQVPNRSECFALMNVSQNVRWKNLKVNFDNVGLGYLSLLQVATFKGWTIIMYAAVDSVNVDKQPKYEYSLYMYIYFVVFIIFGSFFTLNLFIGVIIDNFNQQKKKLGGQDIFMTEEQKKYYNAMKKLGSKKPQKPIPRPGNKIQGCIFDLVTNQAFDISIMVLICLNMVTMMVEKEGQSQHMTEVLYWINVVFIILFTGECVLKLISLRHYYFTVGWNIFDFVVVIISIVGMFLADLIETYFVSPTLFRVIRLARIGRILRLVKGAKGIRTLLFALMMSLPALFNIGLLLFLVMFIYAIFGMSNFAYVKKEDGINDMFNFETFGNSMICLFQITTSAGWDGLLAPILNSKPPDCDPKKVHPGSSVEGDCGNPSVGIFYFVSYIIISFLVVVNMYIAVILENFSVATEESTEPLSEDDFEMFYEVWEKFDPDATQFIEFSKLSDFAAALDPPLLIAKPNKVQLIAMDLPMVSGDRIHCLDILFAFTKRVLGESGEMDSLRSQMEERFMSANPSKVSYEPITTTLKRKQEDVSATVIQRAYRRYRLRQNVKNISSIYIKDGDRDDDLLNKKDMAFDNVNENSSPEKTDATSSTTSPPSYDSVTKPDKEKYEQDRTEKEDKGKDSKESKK

As for `CC[C@H](C)[C@@H]1NC(=O)[C@@H]2CSSC[C@@H]3NC(=O)[C@H](C(C)C)NC(=O)[C@H](CC(C)C)NC(=O)[C@H](CC(N)=O)NC(=O)[C@@H]4CCCN4C(=O)[C@H](CCCNC(=N)N)NC(=O)[C@H](CSSC[C@H](NC(=O)[C@@H](N)CC(=O)O)C(=O)N[C@@H](CC(C)C)C(=O)NCC(=O)N[C@@H](Cc4ccccc4)C(=O)N[C@@H](CCSC)C(=O)N[C@@H](CCCNC(=N)N)C(=O)N[C@@H](CCCCN)C(=O)N2)NC(=O)[C@H](CSSC[C@@H](C(=O)N[C@@H](CCCCN)C(=O)N[C@@H](Cc2ccc(O)cc2)C(=O)N[C@H](C(=O)N[C@@H](Cc2ccccc2)C(N)=O)C(C)C)NC(=O)[C@H](Cc2c[nH]c4ccccc24)NC(=O)[C@H](CCC(N)=O)NC(=O)[C@H](Cc2cnc[nH]2)NC(=O)[C@H]([C@@H](C)O)NC(=O)[C@H](CCCNC(=N)N)NC(=O)[C@H](CO)NC3=O)NC(=O)[C@H](CCCCN)NC(=O)[C@H](CC(=O)O)NC(=O)[C@H](CC(N)=O)NC(=O)[C@H](CC(=O)O)NC(=O)[C@@H]2CCCN2C1=O` [SEQ ID NO: 763, [Gln28]GpTx-1] (H-DCLGFMRKCIPDNDKCCRPNLVCSRTHQWCKYVF-NH2; disulfide 2-17, 9-23, 16-30), the IC50 against hNav1.7 came out at 190 nM; at hNav1.3 (use-dependent block, hNav1.3) it was 270 nM.

As to `CC[C@H](C)[C@@H]1NC(=O)[C@@H]2CSSC[C@@H]3NC(=O)[C@H](C(C)C)NC(=O)[C@H](CC(C)C)NC(=O)[C@H](CC(N)=O)NC(=O)[C@@H]4CCCN4C(=O)[C@H](CCCNC(=N)N)NC(=O)[C@H](CSSC[C@H](NC(=O)[C@@H](N)CC(=O)O)C(=O)N[C@@H](CC(C)C)C(=O)NCC(=O)N[C@@H](Cc4ccccc4)C(=O)N[C@@H](CCSC)C(=O)N[C@@H](CCCNC(=N)N)C(=O)N[C@@H](CCCCN)C(=O)N2)NC(=O)[C@H](CSSC[C@@H](C(=O)N[C@@H](CCCCN)C(=O)N[C@@H](CCC(=O)O)C(=O)N[C@H](C(=O)N[C@@H](Cc2ccccc2)C(N)=O)C(C)C)NC(=O)[C@H](Cc2c[nH]c4ccccc24)NC(=O)[C@H](CCCCN)NC(=O)[C@H](Cc2cnc[nH]2)NC(=O)[C@H]([C@@H](C)O)NC(=O)[C@H](CCCNC(=N)N)NC(=O)[C@H](CO)NC3=O)NC(=O)[C@H](CCCCN)NC(=O)[C@H](CC(=O)O)NC(=O)[C@H](CC(N)=O)NC(=O)[C@H](CC(=O)O)NC(=O)[C@@H]2CCCN2C1=O` [compound 32] (H-DCLGFMRKCIPDNDKCCRPNLVCSRTHKWCKEVF-NH2; disulfide 2-17, 9-23, 16-30), the IC50 on hNav1.7 (Table 25, IonWorks Quattro, use, […], read-out: IWQ Use Nav1.7) was found to be 13900 nM; at hNav1.3 (Table 25, use, […]), 9140 nM.

As for `CC[C@H](C)[C@@H]1NC(=O)[C@@H]2CSSC[C@@H]3NC(=O)[C@H](C(C)C)NC(=O)[C@H](CC(C)C)NC(=O)[C@H](CC(N)=O)NC(=O)[C@@H]4CCCN4C(=O)[C@H](CCCNC(=N)N)NC(=O)[C@H](CSSC[C@H](NC(=O)[C@@H](N)CC(=O)O)C(=O)N[C@@H](CC(C)C)C(=O)NCC(=O)N[C@@H](Cc4ccccc4)C(=O)N[C@@H](CCSC)C(=O)N[C@@H](CCCNC(=N)N)C(=O)N[C@@H](CCCCN)C(=O)N2)NC(=O)[C@H](CSSC[C@@H](C(=O)N[C@@H](CCCCN)C(=O)N[C@@H](Cc2ccc(O)cc2)C(=O)N[C@H](C(=O)N[C@@H](Cc2ccccc2)C(N)=O)C(C)C)NC(=O)[C@H](CCCCN)NC(=O)[C@H](CCCCN)NC(=O)[C@H](Cc2c[nH]cn2)NC(=O)[C@H]([C@@H](C)O)NC(=O)[C@H](CCCNC(=N)N)NC(=O)[C@H](CO)NC3=O)NC(=O)[C@H](CCCCN)NC(=O)[C@H](CC(=O)O)NC(=O)[C@H](CC(N)=O)NC(=O)[C@H](CC(=O)O)NC(=O)[C@@H]2CCCN2C1=O` [compound 56] (H-DCLGFMRKCIPDNDKCCRPNLVCSRTHKKCKYVF-NH2; disulfide 2-17, 9-23, 16-30), on hNav1.7, the Nav1.4/Nav1.7 came out at 1.4 and the Nav1.7/Nav1.3 was 0.8. On hNav1.3, this molecule came in with a Nav1.4/Nav1.3 of 1.1.

Regarding `CC[C@H](C)[C@@H]1NC(=O)[C@@H]2CSSC[C@@H]3NC(=O)[C@H](C(C)C)NC(=O)[C@H](CC(C)C)NC(=O)[C@H](CC(N)=O)NC(=O)[C@@H]4CCCN4C(=O)[C@H](CCCNC(=N)N)NC(=O)[C@H](CSSC[C@H](NC(=O)[C@@H](N)CC(=O)O)C(=O)N[C@@H](CC(C)C)C(=O)NCC(=O)N[C@@H](Cc4ccccc4)C(=O)N[C@@H](CCSC)C(=O)N[C@@H](CCCNC(=N)N)C(=O)N[C@@H](CCCCN)C(=O)N2)NC(=O)[C@H](CSSC[C@@H](C(=O)N[C@@H](CCCCN)C(=O)N[C@@H](Cc2ccc(O)cc2)C(=O)N[C@H](C(=O)N[C@@H](Cc2ccccc2)C(N)=O)C(C)C)NC(=O)[C@H](Cc2c[nH]c4ccccc24)NC(=O)[C@H](CCCCN)NC(=O)[C@H](Cc2c[nH]c4ccccc24)NC(=O)[C@H]([C@@H](C)O)NC(=O)[C@H](CCCNC(=N)N)NC(=O)[C@H](CO)NC3=O)NC(=O)[C@H](CCCCN)NC(=O)[C@H](CC(=O)O)NC(=O)[C@H](CC(N)=O)NC(=O)[C@H](CC(=O)O)NC(=O)[C@@H]2CCCN2C1=O` [compound 84] (H-DCLGFMRKCIPDNDKCCRPNLVCSRTWKWCKYVF-NH2; disulfide 2-17, 9-23, 16-30), the IC50 came out at 320 nM on hNav1.7 (Table 23, IonWorks Quattro, use, […], read-out: IWQ Use Nav1.7) and 590 nM on hNav1.3 (Table 23, use, […]).

Regarding `CC[C@H](C)[C@@H]1NC(=O)[C@@H]2CSSC[C@@H]3NC(=O)[C@H](C(C)C)NC(=O)[C@H](CC(C)C)NC(=O)[C@H](CC(N)=O)NC(=O)[C@@H]4CCCN4C(=O)[C@H](CCCNC(=N)N)NC(=O)[C@H](CSSC[C@H](NC(=O)[C@@H](N)CC(=O)O)C(=O)N[C@@H](CC(C)C)C(=O)NCC(=O)N[C@@H](Cc4ccccc4)C(=O)N[C@@H](CCSC)C(=O)N[C@@H](CCCNC(=N)N)C(=O)N[C@@H](CCCCN)C(=O)N2)NC(=O)[C@H](CSSC[C@@H](C(=O)N[C@@H](CCCCN)C(=O)N[C@@H](Cc2ccc(O)cc2)C(=O)N[C@H](C(=O)N[C@@H](Cc2ccccc2)C(N)=O)C(C)C)NC(=O)[C@H](Cc2c[nH]c4ccccc24)NC(=O)[C@H](CCCCN)NC(=O)[C@H](Cc2cnc[nH]2)NC(=O)[C@H](Cc2cnc[nH]2)NC(=O)[C@H](CCCNC(=N)N)NC(=O)[C@H](CO)NC3=O)NC(=O)[C@H](CCCCN)NC(=O)[C@H](CC(=O)O)NC(=O)[C@H](CC(N)=O)NC(=O)[C@H](CC(=O)O)NC(=O)[C@@H]2CCCN2C1=O` [compound 337] (H-DCLGFMRKCIPDNDKCCRPNLVCSRHHKWCKYVF-NH2; disulfide 2-17, 9-23, 16-30), the IC50 on hNav1.7 (Table 22, IonWorks Quattro, use, […], read-out: IWQ Use Nav1.7) stood at 100 nM; at hNav1.3 (Table 22, use, […]) it was 80 nM.

Take `CC[C@H](C)[C@@H]1NC(=O)[C@@H]2CSSC[C@@H]3NC(=O)[C@H](C(C)C)NC(=O)[C@H](CC(C)C)NC(=O)[C@H](CC(N)=O)NC(=O)[C@@H]4CCCN4C(=O)[C@H](CCCNC(=N)N)NC(=O)[C@H](CSSC[C@H](NC(=O)[C@@H](N)CC(=O)O)C(=O)N[C@@H](CC(C)C)C(=O)NCC(=O)NC(C)(C)C(=O)N[C@@H](CC(C)C)C(=O)N[C@@H](CCCNC(=N)N)C(=O)N[C@@H](CCCCN)C(=O)N2)NC(=O)[C@H](CSSC[C@@H](C(=O)N[C@@H](CCCCN)C(=O)N[C@@H](Cc2ccc(O)cc2)C(=O)N[C@H](C(=O)N[C@@H](Cc2ccccc2)C(N)=O)C(C)C)NC(=O)[C@H](Cc2c[nH]c4ccccc24)NC(=O)[C@H](CCCCN)NC(=O)[C@H](Cc2c[nH]cn2)NC(=O)[C@H]([C@@H](C)O)NC(=O)[C@H](CCCNC(=N)N)NC(=O)[C@H](CO)NC3=O)NC(=O)[C@H](CCCCN)NC(=O)[C@H](CC(=O)O)NC(=O)[C@H](CC(N)=O)NC(=O)[C@H](CC(=O)O)NC(=O)[C@@H]2CCCN2C1=O` [compound 635]: the IC50 on hNav1.7 (IonWorks Quattro, use-dependent protocol, hNav1.7, read-out: IWQ Use Nav1.7) was 230 nM; on hNav1.3 (use-dependent protocol, hNav1.3), 380 nM.

Consider `CC[C@H](C)[C@@H]1NC(=O)[C@@H]2CSSC[C@@H]3NC(=O)[C@H](C(C)C)NC(=O)[C@H](CC(C)C)NC(=O)[C@H](CC(N)=O)NC(=O)[C@@H]4CCCN4C(=O)[C@H](CCCNC(=N)N)NC(=O)[C@H](CSSC[C@H](NC(=O)[C@@H](N)CC(=O)O)C(=O)N[C@@H](CC(C)C)C(=O)NCC(=O)N[C@@H](Cc4ccc(Cl)c(Cl)c4)C(=O)N[C@@H](CCSC)C(=O)N[C@@H](CCCNC(=N)N)C(=O)N[C@@H](CCCCN)C(=O)N2)NC(=O)[C@H](CSSC[C@@H](C(=O)N[C@@H](CCCCN)C(=O)N[C@@H](Cc2ccc(O)cc2)C(=O)N[C@H](C(=O)N[C@@H](Cc2ccccc2)C(N)=O)C(C)C)NC(=O)[C@H](Cc2c[nH]c4ccccc24)NC(=O)[C@H](CCCCN)NC(=O)[C@H](Cc2c[nH]cn2)NC(=O)[C@H]([C@@H](C)O)NC(=O)[C@H](CCCNC(=N)N)NC(=O)[C@H](CO)NC3=O)NC(=O)[C@H](CCCCN)NC(=O)[C@H](CC(=O)O)NC(=O)[C@H](CC(N)=O)NC(=O)[C@H](CC(=O)O)NC(=O)[C@@H]2CCCN2C1=O` [compound 653], for which the Nav1.4/Nav1.7 at hNav1.7 (ratio of IWQ Use values, Nav1.4 over Nav1.7) was 8.8. Moreover, the Nav1.4/Nav1.3 on hNav1.3 (ratio of IWQ Use values, Nav1.4 over Nav1.3) came out at 17.7. On hNav1.3 (ratio of IWQ Use values, Nav1.7 over Nav1.3), the Nav1.7/Nav1.3 was 2.0.

For the origin of these results see patent US9340590B2 (priority 2011, dated 2016).
